In patent publication US20170022171A1, “2,5-DISUBSTITUTED CYCLOPENTANECARBOXYLIC ACIDS AND THEIR USE” (Bayer Pharma Aktiengesellschaft, priority 2014, published 2017) one finds IC50 data, which are given here for 22 compounds.

T1 sequence (P39900 106-470): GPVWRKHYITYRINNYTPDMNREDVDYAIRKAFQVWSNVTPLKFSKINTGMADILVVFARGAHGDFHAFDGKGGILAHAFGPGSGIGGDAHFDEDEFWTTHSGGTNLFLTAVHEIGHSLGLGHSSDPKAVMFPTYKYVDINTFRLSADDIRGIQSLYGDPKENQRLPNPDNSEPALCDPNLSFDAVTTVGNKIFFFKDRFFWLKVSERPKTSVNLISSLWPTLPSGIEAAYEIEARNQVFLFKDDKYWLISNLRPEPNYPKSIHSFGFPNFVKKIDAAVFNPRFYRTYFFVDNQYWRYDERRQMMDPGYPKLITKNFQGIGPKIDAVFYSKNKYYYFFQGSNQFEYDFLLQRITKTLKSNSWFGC

The experiment has as its target T1, human macrophage elastase (HME/hMMP-12) (Homo sapiens, UniProt P39900).
T1 construct: 0.5 nM HME; purchased R&D Systems 917-MP
Briefly: In vitro HME inhibition test (standard or high-sensitivity). The note with it: in some cases mean values. In kind it is biochemical. The method, then: The potency of the compounds according to the invention with respect to HME (MMP-12) is determined in an in vitro inhibition test. The HME-mediated amidolytic cleavage of a suitable peptide substrate leads to an increase in fluorescent light therein. The signal intensity of the fluorescent light is directly proportional to the enzyme activity. The active concentration of a test compound at which half the enzyme is inhibited (50% signal intensity of the fluorescent light) is reported as the IC50 value.
In a 384 hole microtiter plate, in a total test volume of 41 the test buffer (0.1 M HEPES pH 7.4, 0.15 M NaCl, 0.03 M CaCl2, 0.004 mM ZnCl2, 0.02 M EDTA, 0.005% Brij®), the enzyme (0.5 nM HME; from R&D Systems, 917-MP, autocatalytic activation according to the manufacturer's instructions) and the intramolecularly quenched substrate [5 μM Mca-Pro-Leu-Gly-Leu-Glu-Glu-Ala-Dap(Dnp)-NH2; Bachem, M-2670] are incubated in the absence and presence of the test substance (as a solution in DMSO) at 37° C. for two hours. The fluorescence intensity of the test mixtures is measured (excitation […], emission 393 nm). The IC50 values are ascertained by plotting the fluorescent light intensity against the active ingredient concentration.
In this case, an enzyme concentration ten times lower is used (final concentration, for example, 0.05 nM) in order to achieve an elevated test sensitivity. The incubation period chosen for the test is correspondingly longer (for example 16 hours).
`O=C(O)[C@@H]1[C@@H](Cn2nnc3ccc(C(F)(F)F)cc3c2=O)CC[C@H]1C(=O)c1ccc(OCCc2ccccc2)cc1` (single isomer, unassigned) [Example 37, (+)-(1RS,2SR,5RS)-2-{[4-Oxo-6-(trifluoromethyl)-1,2,3-benzotriazin-3(4H)-yl]methyl}-5-[4-(2-phenylethoxy)benzoyl]cyclopentanecarboxylic acid] gave an IC50 of 0.08 nM.

Compound `O=C(O)[C@@H]1[C@@H](Cn2nnc3ccc(C(F)(F)F)cc3c2=O)CC[C@H]1C(=O)c1ccc(OCc2ccc(F)cc2)cc1` (single isomer, unassigned) [Example 14, (−)-(1RS,2RS,5SR)-2-{4-[(4-Fluorobenzyl)oxy]benzoyl}-5-{[4-oxo-6-(trifluoromethyl)-1,2,3-benzotriazin-3(4H)-yl]methyl}cyclopentanecarboxylic acid] showed an IC50 of 10 nM.

Compound `CCCCCSc1ccc(C(=O)[C@@H]2CC[C@H](Cn3nnc4ccc(C(F)(F)F)cc4c3=O)[C@H]2C(=O)O)cc1` (single isomer, unassigned) [Example 90, (−)-(1RS,2SR,5RS)-2-{[4-Oxo-6-(trifluoromethyl)-1,2,3-benzotriazin-3(4H)-yl]methyl}-5-[4-(pentylsulphanyl)benzoyl]cyclopentanecarboxylic acid] returned an IC50 of 1.1 nM.

In turn, `Cc1ccc2nnn(C[C@H]3CC[C@@H](C(=O)c4ccc(OCc5cccc(Cl)c5)cc4)[C@@H]3C(=O)O)c(=O)c2c1` (single isomer, unassigned) [Example 105, (−)-(1RS,2RS,5SR)-2-{4-[(3-Chlorobenzyl)oxy]benzoyl}-5-[(6-methyl-4-oxo-1,2,3-benzotriazin-3(4H)-yl)methyl]cyclopentanecarboxylic acid] displayed an IC50 of 14 nM.

Compound `O=C(O)[C@@H]1[C@@H](Cn2nnc3ccc(C(F)(F)F)cc3c2=O)CC[C@H]1C(=O)c1ccc(OCc2cccc(N3CCOC3=O)c2)cc1` (single isomer, unassigned) [Example 34, (−)-(1RS,2RS,5SR)-2-(4-{[3-(2-Oxo-1,3-oxazolidin-3-yl)benzyl]oxy}benzoyl)-5-{[4-oxo-6-(trifluoromethyl)-1,2,3-benzotriazin-3(4H)-yl]methyl}cyclopentanecarboxylic acid] gave an IC50 of 160 nM.

`Cc1ccc2nnn(C[C@H]3CC[C@@H](C(=O)c4ccc(OCc5ccc(F)cc5)cc4)[C@@H]3C(=O)O)c(=O)c2c1` (single isomer, unassigned) [Example 96, (−)-(1RS,2RS,5SR)-2-{4-[(4-Fluorobenzyl)oxy]benzoyl}-5-[(6-methyl-4-oxo-1,2,3-benzotriazin-3(4H)-yl)methyl]cyclopentanecarboxylic acid]: inhibition was half-maximal at 120 nM (IC50).

Compound `CCCCCOc1ccc(C(=O)[C@@H]2CC[C@H](Cn3nnc4ccc(C)cc4c3=O)[C@H]2C(=O)O)cc1` (single isomer, unassigned) [Example 124, (+)-(1RS,2SR,5RS)-2-[(6-Methyl-4-oxo-1,2,3-benzotriazin-3(4H)-yl)methyl]-5-[4-(pentyloxy)benzoyl]cyclopentanecarboxylic acid] displayed a 50% inhibitory concentration (IC50) of 0.062 nM.

Regarding `O=C(O)[C@H]1[C@H](Cn2nnc3ccc(C(F)(F)F)cc3c2=O)CC[C@@H]1C(=O)c1ccc(SCc2cccc(Cl)c2)cc1` (racemic) [Example 76, (+/−)-(1RS,2RS,5SR)-2-{4-[(3-Chlorobenzyl)sulphanyl]benzoyl}-5-{[4-oxo-6-(trifluoromethyl)-1,2,3-benzotriazin-3(4H)-yl]methyl}cyclopentanecarboxylic acid], half-maximal inhibition (IC50) was put at 0.1 nM.

In turn, “(−)-(1RS,2RS,5SR)-2-{4-[(3,4-Dichlorobenzyl)oxy]benzoyl}-5-{[4-oxo-6-(trifluoromethyl)-1,2,3-benzotriazin-3(4H)-yl]methyl}cyclopentanecarboxylic acid [Example 29]” gave an IC50 of 4.1 nM.

As for `O=C(O)[C@@H]1[C@@H](Cn2nnc3ccc(C(F)(F)F)cc3c2=O)CC[C@H]1C(=O)c1ccc(SCc2cccc(Cl)c2)cc1` (single isomer, unassigned) [Example 78, (−)-(1RS,2RS,5SR)-2-{4-[(3-Chlorobenzyl)sulphanyl]benzoyl}-5-{[4-oxo-6-(trifluoromethyl)-1,2,3-benzotriazin-3(4H)-yl]methyl}cyclopentanecarboxylic acid], half-maximal inhibition (IC50) required 8.8 nM. This IC50 lies about 2.1-fold higher than the previous one.

Turning to `O=C(O)[C@@H]1[C@@H](Cn2nnc3ccc(C(F)(F)F)cc3c2=O)CC[C@H]1C(=O)c1ccc(OCc2cccc(Cl)c2)cc1` (single isomer, unassigned) [Example 22, (−)-(1RS,2RS,5SR)-2-{4-[(3-Chlorobenzyl)oxy]benzoyl}-5-{[4-oxo-6-(trifluoromethyl)-1,2,3-benzotriazin-3(4H)-yl]methyl}cyclopentanecarboxylic acid], the IC50 was found to be 170 nM.

Compound `CCCCCOc1ccc(C(=O)[C@H]2CC[C@@H](Cn3nnc4ccc(C(F)(F)F)cc4c3=O)[C@@H]2C(=O)O)cc1` (racemic) [Example 63, (+/−)-(1RS,2SR,5RS)-2-{[4-Oxo-6-(trifluoromethyl)-1,2,3-benzotriazin-3(4H)-yl]methyl}-5-[4-(pentyloxy)benzoyl]cyclopentanecarboxylic acid] showed an IC50 of 0.015 nM.

In turn, `Cc1ccc2nnn(C[C@H]3CC[C@@H](C(=O)c4ccc(OCCc5ccccc5)cc4)[C@@H]3C(=O)O)c(=O)c2c1` (single isomer, unassigned) [Example 114, (−)-(1RS,2SR,5RS)-2-[(6-Methyl-4-oxo-1,2,3-benzotriazin-3(4H)-yl)methyl]-5-[4-(2-phenylethoxy)benzoyl]cyclopentanecarboxylic acid] registered a half-maximal inhibitory concentration (IC50) of 110 nM.

Take `O=C(O)[C@H]1[C@H](Cn2nnc3ccc(C(F)(F)F)cc3c2=O)CC[C@@H]1C(=O)c1ccc(OCc2ccc(Cl)c(Cl)c2)cc1` (racemic) [Example 27, (+/−)-(1RS,2RS,5SR)-2-{4-[(3,4-Dichlorobenzyl)oxy]benzoyl}-5-{[4-oxo-6-(trifluoromethyl)-1,2,3-benzotriazin-3(4H)-yl]methyl}cyclopentanecarboxylic acid]: 0.032 nM corresponded to half-maximal inhibition (IC50).

On to `CCCCOc1ccc(C(=O)[C@H]2CC[C@@H](Cn3nnc4ccc(C(F)(F)F)cc4c3=O)[C@@H]2C(=O)O)cc1` (racemic) [Example 66, (+/−)-(1RS,2RS,5SR)-2-(4-Butoxybenzoyl)-5-{[4-oxo-6-(trifluoromethyl)-1,2,3-benzotriazin-3 (4H)-yl]methyl}cyclopentanecarboxylic acid], for which the 50% inhibitory concentration (IC50) is 0.043 nM.

For “(−)-(1RS,2SR,5RS)-2-{[4-Oxo-6-(trifluoromethyl)-1,2,3-benzotriazin-3(4H)-yl]methyl}-5-{4-[(2-phenylethy)sulphanyl]benzoyl}cyclopentanecarboxylic acid [Example 84]”, the half-inhibitory concentration (IC50) amounted to 33 nM.

Regarding `CCCOc1ccc(C(=O)[C@H]2CC[C@@H](Cn3nnc4ccc(C(F)(F)F)cc4c3=O)[C@@H]2C(=O)O)cc1` (racemic) [Example 69, (+/−)-(1RS,2SR,5RS)-2-{[4-Oxo-6-(trifluoromethyl)-1,2,3-benzotriazin-3(4H)-yl]methyl}-5-(4-propoxybenzoyl)cyclopentanecarboxylic acid], the IC50 was 0.094 nM.

For the compound `CCCCOc1ccc(C(=O)[C@@H]2CC[C@H](Cn3nnc4ccc(C(F)(F)F)cc4c3=O)[C@H]2C(=O)O)cc1` (single isomer, unassigned) [Example 68, (−)-(1RS,2RS,5SR)-2-(4-Butoxybenzoyl)-5-{[4-oxo-6-(trifluoromethyl)-1,2,3-benzotriazin-3(4H)-yl]methyl}cyclopentanecarboxylic acid], half-maximal inhibition (IC50) was put at 2.1 nM.

The compound `Cc1ccc2nnn(C[C@@H]3CC[C@H](C(=O)c4ccc(OCCCc5ccccc5)cc4)[C@H]3C(=O)O)c(=O)c2c1` (racemic) [Example 115, (+/−)-(1RS,2SR,5RS)-2-[(6-Methyl-4-oxo-1,2,3-benzotriazin-3(4H)-yl)methyl]-5-[4-(3-phenylpropoxy)benzoyl]cyclopentanecarboxylic acid] came in with an IC50 of 0.13 nM.

Consider `O=C(O)[C@@H]1[C@@H](Cn2nnc3ccc(C(F)(F)F)cc3c2=O)CC[C@H]1C(=O)c1ccc(OCC2CCCCC2)cc1` (single isomer, unassigned) [Example 42, (−)-(1RS,2RS,5SR)-2-[4-(Cyclohexylmethoxy)benzoyl]-5-{[4-oxo-6-(trifluoromethyl)-1,2,3-benzotriazin-3(4H)-yl]methyl}cyclopentanecarboxylic acid], for which the IC50 was found to be 39 nM.

Consider `CCCCCOc1ccc(C(=O)[C@@H]2CC[C@H](Cn3nnc4ccc(C(F)(F)F)cc4c3=O)[C@H]2C(=O)O)cc1` (single isomer, unassigned) [Example 65, (−)-(1RS,2SR,5RS)-2-{[4-Oxo-6-(trifluoromethyl)-1,2,3-benzotriazin-3(4H)-yl]methyl}-5-[4-(pentyloxy)benzoyl]cyclopentanecarboxylic acid], for which the IC50 is 1.2 nM.

In turn, `CCCCCCOc1ccc(C(=O)[C@@H]2CC[C@H](Cn3nnc4ccc(C)cc4c3=O)[C@H]2C(=O)O)cc1` (single isomer, unassigned) [Example 122, (−)-(1RS,2RS,5SR)-2-[4-(Hexyloxy)benzoyl]-5-[(6-methyl-4-oxo-1,2,3-benzotriazin-3(4H)-yl)methyl]cyclopentanecarboxylic acid] registered an IC50 of 190 nM.
